Data from patent US11951131B2, “Anti-SLAMF7 chimeric antigen receptors” (The United States of America, as represented by the …, priority 2018, dated 2024).

How the values were obtained:
[1] = test system: MM.1S; assay: IFN-gamma ELISA, CAR T cells with MM.1S target cells; assay type: cell-based, human; settings: Table E
Source text: (§1) MM.1S is a SLAMF7^+ multiple myeloma cell line that was obtained from American Type Culture Collection (ATCC). A549 is a BCMA-negative lung cancer cell line (ATCC). TC71 is a BCMA-negative sarcoma cell line. CCRF-CEM, 293T, and A549 are SLAMF7-negative cell lines (ATCC). COL0207, HepG2, U251, Panc10.05, and TC71 are […] that were kind gifts from Dr. Steven Rosenberg, National Cancer Institute. SLAMF7-K562 are K562 cells (ATCC) which were transduced with the gene for full-length SLAMF7. SLAMF7-RPMI are RPMI8226 cells (ATCC) which were transduced with the gene for full-length SLAMF7. NGFR-K562 are K562 cells which were transduced with the gene for low-affinity nerve growth factor (Kochenderfer et al., J. Immunother., 32(7): 689-702 (2009)). All of the human samples mentioned were obtained from patients enrolled in IRB-approved clinical trials at the National Cancer Institute.
(§2) One-hundred thousand SLAMF7^+ or SLAMF7-negative target cells were combined with 100,000 CAR-transduced T cells in duplicate wells of a 96 well round bottom plate in 200 µL of AIM V™ medium (Invitrogen) plus 5% human serum. The plates were incubated at 37° C. for 18-20 hours. Following the incubation, ELISAs (enzyme-linked immunosorbent assays) for IFNγ were performed by using standard methods.
(§3) All values are pg/mL of IFN-gamma. T cells that were either untransduced or transduced with one of the indicated CARs were cultured with target cells overnight, and a standard IFN-gamma ELISA was performed on the culture supernatant.

[2] = test system: CCRF-CEM; assay: IFN-gamma ELISA, CAR T cells with CCRF-CEM target cells; assay type: cell-based, human; settings: Table E
Source text: as §1, §2, §3

[3] = test system: SLAMF7-K562 target cells; assay: CFSE proliferation assay; assay type: cell-based, human; settings: SLAMF7-K562 versus NGFR-K562 target cells, 4 days (FIGS. 8B, 8C)
Source text: Cocultures were set up in 24-well plates. Target cells included in cocultures were either 0.5×10^6 irradiated SLAMF7-K562 cells or 0.5×10^6 irradiated NGFR-K562 cells. The cocultures also included 1×10^6 T cells from cultures that had been transduced with either […]. The T cells were labeled with carboxy fluorescein diacetate succinimidyl ester (CFSE, Invitrogen) as previously described. The medium used in the cocultures was AIM V™ (Invitrogen) plus 5% human AB serum. IL-2 was not added to the medium. Four days after initiation, the live cells in each coculture were counted with trypan blue for dead cell exclusion, and flow cytometry was performed by Protein L staining.

[4] = test system: SLAMF7^+ MM.1S cells; assay: Cytotoxicity assay (4 hours, relative to CCRF-CEM cells); assay type: cell-based, human; settings: MM.1S relative to control CCRF-CEM cells (FIG. 8A)
Method: Cytotoxicity assays were conducted as previously described (see Kochenderfer et al., J. Immunother., 32(7): 689-702 (2009)). Cytotoxicity was measured by comparing survival of SLAMF7^+ target cells relative to the survival of negative-control CCRF-CEM cells. Both of these cell types were combined in the same tubes with CAR-transduced T cells. CCRF-CEM negative control cells were labeled with the fluorescent dye 5-(and -6)-(((4-chloromethyl)benzoyl)amino) tetramethylrhodamine (CMTMR) (Invitrogen), and SLAMF7^+ target cells were labeled with CFSE. Cocultures were set up in sterile 5 mL test tubes (BD Biosciences) in duplicate at multiple T cell to target cell ratios. The target cells contained in the tubes were 50,000 SLAMF7^+ target cells along with 50,000 CCRF-CEM negative-control cells. The cultures were incubated for 4 hours at 37° C. Immediately after the incubation, 7AAD (7-amino-actinomycin D) (BD Biosciences) was added, and flow cytometry acquisition was performed. For each T cell plus target-cell culture, the percent survival of SLAMF7^+ target cells was determined by dividing the percent live SLAMF7^+ cells by the percent live CCRF-CEM negative control cells. The corrected percent survival of SLAMF7^+ target cells was calculated by dividing the percent survival of SLAMF7^+ target cells in each T cell plus target cell culture by the ratio of the percent live SLAMF7^+ target cells to percent live CCRF-CEM negative-control cells in tubes containing only SLAMF7^+ target cells and CCRF-CEM cells without effector T cells. This correction was necessary to account for variation in the starting cell numbers and for spontaneous target cell death. Cytotoxicity was calculated as follows: the percent cytotoxicity of […] target cells=100−corrected percent survival of SLAMF7^+ target cells.

[5] = test system: NGFR-K562; assay: IFN-gamma ELISA, CAR T cells with NGFR-K562 target cells; assay type: cell-based, human; settings: Table E
Source text: as §1, §2
(§4) The T cells columns indicate whether T cells were transduced with Luc90-CD828Z, Luc63-CD828Z, or were untransduced. The % CAR^+ in Table B-1 was determined by staining the T cells with Protein L. Except for the % CAR^+ column, all values are pg/mL of IFN-gamma. T cells that were either untransduced or transduced with one of the indicated CARs were cultured with target cells overnight and a standard IFN-gamma ELISA was performed on the culture supernatant.
as §3
(§5) The values in the cells are pg/mL of IFN-gamma. T cells that were either untransduced or transduced with one of the indicated CARs were cultured with target cells overnight, and a standard IFN-gamma ELISA was performed on the culture supernatant. The concentrations of 0, 50, or 200 ng/mL at the top of each column indicates the concentration of soluble SLAMF7 added to all T cell plus target cell overnight cultures in that column. The soluble SLAMF7 was added at the beginning of the overnight culture.

[6] = test system: SLAMF7-K562; assay: IFN-gamma ELISA, CAR T cells cultured overnight with SLAMF7-K562 target cells; assay type: cell-based, human; settings: Table E; overnight culture
Source text: as §1, §2, §4, §3

[7] = test system: T cells only; assay: IFN-gamma ELISA, T cells only (no target cells); assay type: cell-based, human; settings: Table E
Method: as §2, §4, §3, §5

[8] = test system: IC9-Luc90-CD828Z CAR T cells; assay: AP1903 abrogation of CAR T-cell activity in MM.1S tumor-bearing mice; assay type: in vivo, NSG mice
Method: First, MM.1S human SLAMF7^+ multiple myeloma cell line tumors were established in immunodeficient mice. In this model, the MM.1S cells formed a solid cutaneous mass. Measurable tumors were allowed to develop over 7 days, and then the mice were treated with a single intravenous infusion of MSGV1-IC9-Luc90-CD828Z-transduced human T cells. NSG mice (NOD.Cg-Prkdc^scid Il2rg^tm1Wjl/SzJ) from The Jackson Laboratory, Bar Harbor, Me., were used. Mice received intradermal injections of 4×10^6 MM.1S cells. The cells were suspended in a 1:1 mixture of MATRIGEL™ gelatinous protein mixture (BD Biosciences) and PBS (Phosphate-buffered saline) for injection. Tumors were allowed to grow for 7 days, and then each mouse received a single intravenous infusion of human T cells that were transduced with one of 3 CARs: IC9-Luc90-CD828Z (suicide gene+anti-SLAMF7 CAR), Luc90-CD828Z (anti-SLAMF7 CAR alone), or a negative-control anti-CD19 CAR Hu19-CD828Z. A 4th group was left untreated. All groups included 5 mice. After CAR T-cell infusion, the tumors were measured with calipers every 3 days. The longest length and the length perpendicular to the longest length and the tumor thickness were multiplied together to obtain the tumor volume in mm^3. When the longest length reached 15 mm, mice were sacrificed. Animal studies were approved by the National Cancer Institute Animal Care and Use Committee.
MM.1S tumors were established in NSG mice as described in Example 9. The mice were treated with 2×10^6 IC9-Luc90-CD828Z T cells. The mice received 5 mg/kg of AP1903 intraeritoneally for either 3 days or 12 days after the CAR T-cell infusion. […] Also levels of IC9-Luc90-CD828Z CART cells in the mice receiving AP1903 were reduced as compared to the mice receiving the vehicle.

[9] = test system: IC9-expressing T cells; assay: 6-hour and 48-hour post-rimiducid T cell death analysis; assay type: cell-based, human; settings: for elimination of transduced T cells by AP1903: 1, 10 or 100 ng/mL; for annexin V staining of residual CAR^+ T cells: AP1903 6 hours; for annexin V staining of residual CAR+ cells: AP1903 48 hours
Method: On day 8 of culture, 1 million T cells from cultures that were either untransduced or transduced with one of the anti-SLAMF7 CARs cells were suspended at 1×10^6 T cells/mL in AIM V™ media (Invitrogen) plus 300 IU of interleukin-2. One million cells were added to each of 4 wells of a 12-well plate. A different concentration of AP1903 (MedChem Express, Princeton, N.J.) from was added to each well. AP1903 is also referred to as rimiducid. The concentrations of AP1903 evaluated were: 0, 1, 10, or 100 ng/mL.
Six hours and 48 hours after these cultures were set up, the cells were counted, washed, and stained with Protein L as described above. Next, the cells were washed twice with PBS, re-suspended in Annexin V binding buffer (BD Biosciences), and incubated with allophycocyanin-conjugated Annexin V (BD Biosciences) and 7AAD (BD Biosciences) for 15 minutes (mins) at room temp. The cells were immediately analyzed by flow cytometry.

[10] = T cells transduced with IC9-Luc90-CD828Z
[11] = T cells transduced with Luc90-CD828Z-IC9

## Luc90-CD828Z-IC9: CAR plus suicide gene construct (SEQ ID NO: 30): Luc90-CD828Z, T2A, IC9 suicide gene 3′ to the CAR
[1]
  IFN-gamma, MM.1S: 1333 pg/mL
[2]
  IFN-gamma, CCRF-CEM: 42 pg/mL
[3]
  proliferation (CFSE dilution): proliferated more
[4]
  killing of SLAMF7^+ target cells: specifically killed the SLAMF7^+ MM.1S cells
[5]
  IFN-gamma, NGFR-K562: 33 pg/mL
[6]
  IFN-gamma, SLAMF7-K562: 2249 pg/mL
[7]
  IFN-gamma, T-cells Alone: 39 pg/mL

## CC[C@H](C(=O)N1CCCC[C@H]1C(=O)O[C@H](CCc1ccc(OC)c(OC)c1)c1cccc(OCC(=O)NCCNC(=O)COc2cccc([C@@H](CCc3ccc(OC)c(OC)c3)OC(=O)[C@@H]3CCCCN3C(=O)[C@@H](CC)c3cc(OC)c(OC)c(OC)c3)c2)c1)c1cc(OC)c(OC)c(OC)c1 [AP1903]
[8]; 2×10^6 IC9-Luc90-CD828Z T cells, AP1903 5 mg/kg intraperitoneally (FIG. 18)
  tumor outcome in mice receiving AP1903 after CAR T cells: progressive tumors
[8]; AP1903 5 mg/kg compared to vehicle
  levels of IC9-Luc90-CD828Z CAR T cells in mice: reduced
[9]; T cells transduced with IC9-Luc90-CD828Z, 6 hours
  elimination of transduced T cells by AP1903: most transduced cells exposed to either 1, 10, or 100 ng/mL of AP1903 were eliminated
[9]; T cells transduced with IC9-Luc90-CD828Z, 48 hours
  elimination of transduced T cells by AP1903: most transduced cells exposed to either 1, 10, or 100 ng/mL of AP1903 were eliminated
[9]; [10]
  annexin V staining of residual CAR^+ T cells: most residual CAR^+ T cells in the AP1903-treated cultures were annexin V^+
  annexin V staining of residual CAR+ cells: most residual CAR+ cells were annexin V^+
[9]; T cells transduced with Luc90-CD828Z-IC9, 6 hours
  elimination of transduced T cells by AP1903: most transduced cells exposed to either 1, 10, or 100 ng/mL of AP1903 were eliminated
[9]; T cells transduced with Luc90-CD828Z-IC9, 48 hours
  elimination of transduced T cells by AP1903: most transduced cells exposed to either 1, 10, or 100 ng/mL of AP1903 were eliminated
[9]; [11]
  annexin V staining of residual CAR^+ T cells: most residual CAR^+ T cells in the AP1903-treated cultures were annexin V^+
  annexin V staining of residual CAR+ cells: most residual CAR+ cells were annexin V^+
[9]; clinically-relevant range of concentrations tested (1-100 ng/mL)
  dependence of elimination on AP1903 concentration: did not depend on the concentration of AP1903
